For data set [1] the following is noted: 16-membered ring.
For data set [2] the following is noted: 16-membered ring. The source holds these as a separate data set.
The subject of data set [3] is MIA PaCa-2 cells. As to the kind of experiment: MIA PaCa-2 CTG Assay (CellTiter-Glo cell viability, 72 h). In kind it is cell-based, human. The following applies: second value of cell, read-out: G12D/C/V Cell Proliferation CTG (72 h) Mia PaCa-2. As to the method:
MIA PaCa-2 CTG Assay Protocol
(§1) Serially-diluted compound or DMSO was added to the cells, and plates were incubated at 37° C., 5% CO2 for 72 h. Cell viability was measured using a CellTiter-Glo® Luminescent Cell Viability Assay kit (Promega) according to the manufacturer's protocol. The luminescence signal of treated samples was normalized to DMSO control, and data were analyzed using a 4-parameter logistic model to calculate IC50 values.

The subject of data set [4] is Phosphorylation of ERK1/2 in AsPC-1 cells. As to the kind of experiment: Phospho-ERK1/2 MSD Assay. The settings on record: read-out: 2 h p-ERK (AsPC-1 cells), IC50. Type of data set: cell-based, human. As to the method: Sixteen hours prior to compound treatment, AsPC-1 cells were seeded in 96-well cell culture plates at a density of 25,000 cells/well and incubated at 37° C., 5% CO2. A compound dose-response titration was diluted in growth media, added to appropriate wells of a cell culture plate, and then incubated at 37° C., 5% CO2 for 2 hours. […] Phosphorylation of ERK1/2 in compound-treated lysates was assayed using Phospho-ERK 1/2 Whole Cell Lysate kits (Meso Scale Discovery K151DWD) according to the manufacturer's protocol. Assay plates were read on a Meso Scale Discovery Sector Imager 6000, and data were analyzed using a 4-parameter logistic model to calculate IC50 values.

Data set [5] has as its system AsPC-1 cells. Nature of the data set: AsPC-1 CTG Assay (CellTiter-Glo cell viability, 72 h). In kind it is cell-based, human. The following applies: read-out: G12D/C/V Cell Proliferation CTG (72 h) AsPC-1. As to the method: AsPC-1 and SW620 CTG Assay Protocols
as §1
In general terms: In ATP-based viability assays light output follows the ATP content of the culture.

Data set [6] concerns phospho-ERK1/2 in PANC 04.03 tumors. Nature of the data set: Tumor Pharmacodynamic Assay (p-ERK inhibition in PANC 04.03 tumor-bearing mice). Type of data set: in vivo. The following applies: PANC 04.03 tumor-bearing female athymic nude mice; single oral dose 100 mg/kg; tumors harvested 2 hours later; p-ERK1/2 normalized to total ERK1/2, relative to vehicle group. As to the method:
Tumor Pharmacodynamic Assays
Inhibitor pharmacodynamic effects were assessed in PANC 04.03 tumor-bearing mice. PANC 04.03 tumor cells (5.0E+06 cells) were injected subcutaneously into the flank of female athymic nude mice in a mixture with Matrigel (BD Bioscience). Mice received a single oral dose of either vehicle or inhibitors (100 mg/kg) when the average tumor size reached ˜300-600 mm^3 (n=3/group) and harvested 2 hours later. Tumor samples were collected, snap frozen, and processed for analysis by pulverizing with a cryoPREP® Dry Impactor (Covaris). Pulverized samples were resuspended in RIPA lysis buffer containing protease and phosphatase inhibitors and homogenized. Cleared lysates were analyzed using phospho-ERK1/2 and total ERK1/2 whole cell lysate kits (Meso Scale Discovery) according to the manufacturer's protocol. Phospho-ERK1/2 signal was normalized to total ERK1/2 signal for a given sample, and percent inhibition of p-ERK was calculated relative to the vehicle group.

For data set [7], the target named is His-tagged KRAS G12D protein (Homo sapiens, UniProt P01116, G12D). Nature of the data set: KRAS G12D TR-FRET Assay. In kind it is binding. The procedure, abridged: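 GDP-loaded His-KRAS G12D (20 nM in HEPES pH 7.4, MgCl2, NaCl, BSA, Tween-20, 10 μM GDP) preincubated with compound 30 min at room temperature, then 20 nM biotinylated KRPep-2d peptide added for 1 h. TR-FRET detection used Eu anti-His and streptavidin-d2, read after 1 h.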
On the technique in general: TR-FRET usually uses a lanthanide donor and a delayed reading to cut background.

Data set [8] deals with GDP-bound KRAS protein (aa 1-169), containing both G12D and C118A amino acid substitutions (Homo sapiens, UniProt P01116, C118A/G12D). Nature of the data set: KRAS G12D Coupled Nucleotide Exchange Assay. In kind it is biochemical. The method, then: KRAS G12D Coupled Nucleotide Exchange Assay
The assay plates were then read on a PerkinElmer En Vision Multilabel Reader, using AlphaScreen® technology, and data were analyzed using a 4-parameter logistic model to calculate IC50 values.

[9] abbreviates: Homo sapiens, ASPC1, 2 h, AsPC-1 cells, 2 h compound treatment.
The mark [10] stands for this setting: Homo sapiens, ASPC1, 72 h, AsPC-1 cells, 72 h, first value of cell.

From patent publication US20260174769A1, “MACROCYCLIC COMPOUNDS AND METHODS OF USE” (AMGEN INC., priority 2022, published 2026) come the findings set out here.

SMILES strings stand for the structures. Where two headings read alike, the source gives them in different places.

His-tagged KRAS G12D protein, sequence (P01116 1-188 isoform P01116-2 G12D): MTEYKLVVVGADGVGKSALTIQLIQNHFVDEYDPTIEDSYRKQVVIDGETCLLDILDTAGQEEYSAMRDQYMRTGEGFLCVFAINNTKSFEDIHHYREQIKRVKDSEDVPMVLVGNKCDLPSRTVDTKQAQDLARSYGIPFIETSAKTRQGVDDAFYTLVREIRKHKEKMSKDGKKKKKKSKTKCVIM
GDP-bound KRAS protein (aa 1-169), containing both G12D and C118A amino acid substitutions, sequence (P01116 1-169 isoform P01116-2 G12D/C118A): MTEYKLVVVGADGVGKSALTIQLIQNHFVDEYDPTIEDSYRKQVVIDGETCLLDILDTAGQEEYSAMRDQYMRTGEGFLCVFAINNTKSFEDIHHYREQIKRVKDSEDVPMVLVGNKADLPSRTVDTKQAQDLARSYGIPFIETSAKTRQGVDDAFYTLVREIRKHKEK

In data set [1] (from CN[C@@H]1CCCN(c2nc(OC[C@@]34CCCN3C[C@H](F)C4)nc3cc(-c4c(CCCCC(=O)O)c(Cl)cc5[nH]ncc45)nnc23)C1, amide bond, EDCI/HOBt/DIEA, DCM, 10.3 mM, 25.0 °C, 36.0 h, 3 steps), `CN1C(=O)CCCCc2c(Cl)cc3[nH]ncc3c2-c2cc3nc(OC[C@@]45CCCN4C[C@H](F)C5)nc(c3nn2)N2CCC[C@@H]1C2` returned a ring closure, yield after HPLC of 20%.
Consider `CN1C(=O)OCCCc2c(Cl)cc3[nH]ncc3c2-c2ncc3c(nc(OC[C@@]45CCCN4C[C@H](F)C5)nc3c2F)N2CCC[C@@H]1C2`, for which, in data set [1] (from CN(C(=O)OCCCc1c(Cl)cc2[nH]ncc2c1-c1ncc2c(O)nc(OC[C@@]34CCCN3C[C@H](F)C4)nc2c1F)[C@@H]1CCCNC1, snar bond, PyBroP/DIEA, MeCN/DMSO, 11.7 mM, 25.0 °C, 2 steps), the ring closure, yield after HPLC was determined as 14%.
The molecule `CSc1nc2c3cnc(c(C)c3n1)-c1cc(O)cc3ccc(F)c(c13)CCCC(=O)N[C@]1(C)CCCN2C1` had a ring closure, yield after HPLC in data set [1] (from CSc1nc(N2CCC[C@@](C)(N)C2)c2cnc(-c3cc(O)cc4ccc(F)c(CCCC(=O)O)c34)c(C)c2n1, amide bond, HATU, then Me2NH, DCM/DMA/DMF, 5.6 mM, 25.0 °C) of 32%.
Take `Cc1cc2[nH]ncc2c(-c2ncc3c(O)nc(OC[C@@]45CCCN4C[C@H](F)C5)nc3c2F)c1CCOC(=O)OC[C@@H]1CCCNC1`: the ring closure, yield after HPLC in data set [1] (the molecule shown is the open-chain precursor, snar bond) was 20%.
Regarding `Cc1cc2c(cnn2C2CCCCO2)c2c1CCCCC(=O)N[C@@H]1CCCN(C1)c1nc(OC[C@@]34CCCN3C[C@H](F)C4)nc3c(F)c-2ncc13` (stereo partly drawn), the ring closure, isolated yield in data set [2] (from Cc1cc2c(cnn2C2CCCCO2)c(-c2ncc3c(N4CCC[C@@H](N)C4)nc(OC[C@@]45CCCN4C[C@H](F)C5)nc3c2F)c1CCCCC(=O)O, amide bond, HATU/DIEA, DMA, 4.7 mM, 25.0 °C, 1.5 h) was 22%.
`Cc1cc2c(cnn2C2CCCCO2)c2c1CCCn1ncc(n1)C1CCCN(C1)c1nc(OC[C@@]34CCCN3C[C@H](F)C4)nc3c(F)c-2ncc13` (stereo partly drawn) registered a ring closure, isolated yield in data set [2] (from Cc1cc2c(cnn2C2CCCCO2)c(-c2ncc3c(N4CCCC(c5cn[nH]n5)C4)nc(OC[C@@]45CCCN4C[C@H](F)C5)nc3c2F)c1CCCCl, other bond, K2CO3/TBAI, MeCN, 6.9 mM, 85.0 °C, 3.0 h) of 31%.
On to `O=C1CCCc2c(F)ccc3cccc(c23)-c2ncc3c(nc(OC[C@@]45CCCN4C[C@H](F)C5)nc3c2F)N2CCC[C@H](C2)N1`, for which the ring closure, yield after HPLC in data set [1] (from N[C@@H]1CCCN(c2nc(OC[C@@]34CCCN3C[C@H](F)C4)nc3c(F)c(-c4cccc5ccc(F)c(CCCC(=O)O)c45)ncc23)C1, amide bond, HATU/DIEA, DMF, 5.9 mM, 0.5 h, 2 steps) worked out at 30%.
Consider `C[C@@]12CCCCN(C1)c1nc(OC[C@@]34CCCN3C[C@H](F)C4)nc3c(F)c(ncc13)-c1c(c(Cl)cc3[nH]ncc13)CCCC(F)C(=O)N2` (mixture of isomers) [Example 281, (23RS,26R)-18-chloro-23,32-difluoro-4-(((2R,7aS)-2-fluorotetrahydro-1H-pyrrolo[1,2-a]pyrrol-7a(5H)-yl)methoxy)-26-methyl-1,3,5,9,14,15,25-heptaazahexacyclo[24.4.1.1~6,10~.0~2,7~.0~11,19~.0~12,16~]dotriaconta-2,4,6,8,10(32),11,13,16,18-nonaen-24-one], for which the IC50 in data set [3] (Homo sapiens) is 90 nM.
Take `O=C1COCCCc2c(Cl)cc3[nH]ncc3c2-c2ncc3c(nc(OC[C@@]45CCCN4C[C@H](F)C5)nc3c2F)N2CC[C@H]3CCN1[C@H]3C2` [Example 168]: the IC50 was determined as 1.3 nM in data set [4] and 10 nM in data set [5]. For the same molecule, the “p-ERK (% inhibition) 2 hr.” value in data set [6] is 65%.
Turning to `C[C@@]12COCCN(C1)c1nc(OC[C@@]34CCCN3C[C@H](F)C4)nc3c(F)c(ncc13)-c1c(c(F)cc3[nH]ncc13)CCCOC(=O)O2` [Example 184, (26S)-18,32-difluoro-4-(((2R,7aS)-2-fluorotetrahydro-1H-pyrrolo[1,2-a]pyrrol-7a(5H)-yl)methoxy)-26-methyl-23,25,28-trioxa-1,3,5,9,14,15-hexaazahexacyclo[24.4.1.1~6,10~.0~2,7~.0~11,19~.0~12,16~]dotriaconta-2,4,6,8,10(32),11,13,16,18-nonaen-24-one], the IC50 in data set [7] (TR-FRET binding) is 4 nM; in data set [8] (2 hours compound pre-incubation, SOS-mediated nucleotide exchange), 2 nM; in data set [4] (setting [9]), 11.8 nM; in data set [5] (setting [10]), 120 nM.
On to `Cc1cc2[nH]ncc2c2c1CCCCOCC1CN(CCC1(F)F)c1nc(OC[C@@]34CCCN3C[C@H](F)C4)nc3c(F)c-2ncc13` (stereo partly drawn) [Example 227, (17R)-18,18,30-trifluoro-24-(((2R,7aS)-2-fluorotetrahydro-1H-pyrrolo[1,2-α]pyrrol-7a(SH)-yl)methoxy)-9-methyl-15-oxa-5,6,21.23,25,29-hexaazahexacyclo[24.3.1.1~17,21~.0~2,10~.0~3.7~.0~22,27~]hentriaconta-1(30),2,4,7,9,22,24,26,28-nonaene], for which the IC50 in data set [7] (read-out: KRAS G12D Binding IC50) was found to be 35 nM; in data set [8] it was 12 nM; in data set [4] it was 611 nM; in data set [5], 3910 nM.
On to `O=C1OCCc2c(Cl)cc3[nH]ncc3c2-c2ncc3c(nc(OC[C@@]45CCCN4C[C@H](F)C5)nc3c2F)N2CCO[C@]3(C2)C[C@H](C3)O1` [Example 248, (1R.3R)-10-chloro-32-fluoro-24-(((2R,7aS)-2-fluorotetrahydro-1H-pyrrolo[1,2-α]pyrrol-7a(SH)-yl)methoxy)-4,6,30-trioxa-1.3,14,19,23,25,27-hexaazaheptacyclo[25.3.1.1~1,3~.1~18,22~.0~9.17~.0~12,16~.0~21,26~]tritriaconta-9,11,14,16,18(32),19,21,23,25-nonaen-5-one], for which the IC50 is 7.8 nM in data set [4] (AsPC-1 cells, 2 h compound treatment); 13 nM in data set [5] (AsPC-1 cells, 72 h, first value of cell); 7 nM in data set [3]. Also, the “p-ERK (% inhibition) 2 hr.” value in data set [6] is given as 85%.
For `O=C1COCCc2c(Cl)cc3[nH]ncc3c2-c2ncc3c(nc(OC[C@@]45CCCN4C[C@H](F)C5)nc3c2F)N2CC[C@H]3CCN1[C@H]3C2` [Example 270], the IC50 in data set [7] (TR-FRET binding) was 7 nM; in data set [4] (setting [9]), 123 nM; in data set [5] (setting [10]) it was 606 nM; in data set [3] (Homo sapiens), 675 nM.
